According to US10532065B2, “Bisphosphonic acid derivative and application for same” (NAGASAKI UNIVERSITY, priority 2014, dated 2020):
Where “and” joins values, the source holds several entries; their conditions need not be identical. Identical values can stand only once. Like-named read-outs stand apart in the source and are kept apart here.

How the values were obtained:
Format in all cases: cell-based
EJ-1 cells = assay: EJ-1 cell growth inhibition (direct antitumor action, CellTiterGlo); details: for IC50: EJ-1 (bladder cancer) growth inhibition, 4 days culture; for direct antitumor activity (in words): EJ-1 growth inhibition
Method: (§1) The direct antitumor action of bisphosphonic acid POM ester and bisphosphonic acid was studied by comparison using U937.
(§2) The direct antitumor action of bisphosphonic acid POM ester derivatives and bisphosphonic acids was studied by comparison using EJ-1. It was performed in the same manner as in Experimental Example 1 except that EJ-1 was used as the cell to be used. For recovery of the cells, a conventional EDTA trypsin treatment was performed.
as §2, with “POM esters” for “POM ester derivatives”, “Example 2” for “Example 1”
(§3) The direct antitumor action of various bisphosphonic acid POM esters was studied by comparison using U937 and EJ-1. The measurement was performed according to Experimental Example 2 and Experimental Example 4.

EJ-1 cells / γδ T cells = assay: TNF-α production from γδ T cells stimulated by compound-pretreated EJ-1 cells (indirect antitumor action, ELISA); details: for EC50: EJ-1 pretreated 4 hr with compound, 16 hr with γδ T cells, TNF-α ELISA, read-out: TNF-α50; for TNF-α production induction activity (in words): EJ-1 pretreated with compound, γδ T cells
Method: The indirect antitumor action of bisphosphonic acid POM esters and bisphosphonic acids was studied by comparison using EJ-1. In principle, EJ-1 is treated with a compound, washed, and reacted with γδ T cells, and the cytotoxic ability is studied by comparison, by quantifying TNF-α produced by γδ T cells during cell disordering. TNF-α is generally used as an index of γδ T cell induction ability and/or proliferative capacity, and γδ T cells are considered to be induced and/or proliferated in proportion to the TNF-α amount (Journal of Immunology, 154, 5986-5994 (1995)). Since the produced TNF-α is what is called a tumor necrosis factor, it is considered to have an action to lower proliferation of cancer cells or induce cell death.
Thereto was added a solution (500 μl) of compounds 3, 5, 6, 7, which are bisphosphonic acid POM ester derivatives, obtained by serially diluting 10 mM stock solution 10-fold from 20 μM, or a solution (500 μl) of bisphosphonic acid 10, 12, 13, 14 compound obtained by serially diluting 10-fold from 200 μM, and the cells were suspended well. These conical tubes were stood at 37° C. for 4 hr, and the cells were washed 3 times with 5 ml of culture medium. To these cells was added 500 μl of medium, and the cells were suspended well. […] The cell culture medium was suspended well, and the plate was centrifuged at 1,700 rpm, 4° C. for 2 min and the culture supernatant (150 μl) was taken and placed in another round-bottomed 96 well plate. The plate was frozen at −80° C. overnight, left standing at room temperature for 1 hr, stirred well and 100 μl thereof was subjected to ELISA of TNF-α. The content of TNF-α was calculated from the analytical curve of TNF-α. These were performed in triplicate, and a graph showing bisphosphonic acid POM ester derivative and the corresponding bisphosphonic acid as one pair was plotted. […] The results of bisphosphonic acid POM ester derivative are shown by -●-, and the results of bisphosphonic acid are shown by -◯-.
The indirect antitumor action of bisphosphonic acid POM esters and bisphosphonic acids was quantitatively studied by comparison using EJ-1. […] Thereto was added a solution (500 μl) of a bisphosphonic acid POM ester derivative obtained by serially diluting 10 mM stock solution 10-fold from 20 μM, or a bisphosphonic acid solution (500 μl) serially diluted 10-fold from 200 μM was added, and the cells were suspended well. These conical tubes were stood at 37° C. for 4 hr, and the cells were washed 3 times with 5 ml of culture medium. To these cells was added 500 μl of medium, and the cells were suspended well. […] The cell culture medium was suspended well, and the plate was centrifuged at 1,700 rpm, 4° C. for 2 min and the culture supernatant (150 μl) was taken and placed in another round-bottomed 96 well plate. The plate was frozen at −80° C. overnight, left standing at room temperature for 1 hr, stirred well and 100 μl thereof was subjected to ELISA of TNF-α. The content of TNF-α was calculated from the analytical curve of TNF-α. These were performed in triplicate, and a half of the concentration of compounds 1-7, which are bisphosphonic acid POM ester derivatives, and compounds 8-14, which are bisphosphonic acids, necessary for producing the maximum amount of TNF-α from γδ T cells was calculated as TNF-α50, and summarized in Table 6.
Therefore, the TNF-α50 value of various bisphosphonic acid POM ester derivatives was calculated. […] Thereto was added a solution (500 μl) of compounds 1-7 and 15-39, which are bisphosphonic acid POM ester derivatives, and compound 42, which is other bisphosphonic acid ester derivative, obtained by serially diluting 10 mM stock solution 10-fold from 20 μM, and the cells were suspended well. These conical tubes were stood at 37° C. for 4 hr, and the cells were washed 3 times with 5 ml of culture medium. To these cells was added 500 μl of medium, and the cells were suspended well. […]

U937 cells = assay: U937 cell growth inhibition (direct antitumor action, CellTiterGlo); details: for IC50: U937 cell growth inhibition, 4 days culture; for direct antitumor activity (in words): U937 growth inhibition
Method: as §1, §3

SMILES | IC50 (EJ-1 cells) | EC50 (EJ-1 cells / γδ T cells) | IC50 (U937 cells) | TNF-α production induction activity (in words) (EJ-1 cells / γδ T cells) | IC50 (EJ-1 cells; EJ1, 96 h) | EC50 (EJ-1 cells / γδ T cells; EJ1) | IC50 (U937 cells; Homo sapiens, U-937, 96 h) | direct antitumor activity (in words) (EJ-1 cells) | direct antitumor activity (in words) (U937 cells)
Cc1cc(NCC(P(=O)(OCOC(=O)C(C)(C)C)OCOC(=O)C(C)(C)C)P(=O)(OCOC(=O)C(C)(C)C)OCOC(=O)C(C)(C)C)no1 [Compound 37, tetrakispivaloyloxymethyl 2-(5-methylisoxazol-3-ylamino)ethylidene-1,1-bisphosphonate] | 16 µM | > 10 µM | 7.9 µM | – | – | – | – | – | –
COc1ccc(-c2cccnc2NCC(P(=O)(OCOC(=O)C(C)(C)C)OCOC(=O)C(C)(C)C)P(=O)(OCOC(=O)C(C)(C)C)OCOC(=O)C(C)(C)C)cc1 [Compound 25, tetrakispivaloyloxymethyl 2-[3-(4-methoxyphenyl)pyridin-2-ylamino]ethylidene-1,1-bisphosphonate] | 8.8 µM | > 10 µM | 6.2 µM | – | – | – | – | – | –
CC(C)(C)C(=O)OCOP(=O)(OCOC(=O)C(C)(C)C)C(CNc1ccnc(Br)c1)P(=O)(OCOC(=O)C(C)(C)C)OCOC(=O)C(C)(C)C [Compound 29, tetrakispivaloyloxymethyl 2-(2-bromopyridin-4-ylamino)ethylidene-1,1-bisphosphonate] | 12 µM | > 10 µM | 6.6 µM | – | – | – | – | – | –
CC(C)(C)C(=O)OCOP(=O)(OCOC(=O)C(C)(C)C)C(CNc1ccon1)P(=O)(OCOC(=O)C(C)(C)C)OCOC(=O)C(C)(C)C [Compound 36, tetrakispivaloyloxymethyl 2-(isoxazol-3-ylamino)ethylidene-1,1-bisphosphonate] | 15 µM | 8 µM | 7.9 µM | – | – | – | – | – | –
CCCCCCCCc1ccc(NCC(P(=O)(OCOC(=O)C(C)(C)C)OCOC(=O)C(C)(C)C)P(=O)(OCOC(=O)C(C)(C)C)OCOC(=O)C(C)(C)C)nc1 [Compound 22, tetrakispivaloyloxymethyl 2-(5-octanylpyridin-2-ylamino)ethylidene-1,1-bisphosphonate] | 3.7 µM | 4.8 µM | 3.4 µM | – | – | – | – | – | –
CC(C)(C)C(=O)OCOP(=O)(OCOC(=O)C(C)(C)C)C(CNc1ccc(F)cn1)P(=O)(OCOC(=O)C(C)(C)C)OCOC(=O)C(C)(C)C [Compound 5, tetrakispivaloyloxymethyl 2-(5-fluoropyridin-2-ylamino)ethylidene-1,1-bisphosphonate] | 4.8 µM and 5.7 µM | 0.069 µM | 5.3 µM | high activity | – | – | – | – | –
CC(C)(C)C(=O)OCOP(=O)(OCOC(=O)C(C)(C)C)C(CNc1nncs1)P(=O)(OCOC(=O)C(C)(C)C)OCOC(=O)C(C)(C)C [Compound 38, tetrakispivaloyloxymethyl 2-(1,3,4-thiadiazol-2-ylamino)ethylidene-1,1-bisphosphonate] | 8.5 µM | 1.9 µM | 11 µM | – | – | – | – | – | –
CN(CC(P(=O)(OCOC(=O)C(C)(C)C)OCOC(=O)C(C)(C)C)P(=O)(OCOC(=O)C(C)(C)C)OCOC(=O)C(C)(C)C)c1ccccn1 [Compound 1, tetrakispivaloyloxymethyl 2-(methylpyridin-2-ylamino)ethylidene-1,1-bisphosphonate] | 11 µM | 0.55 µM | 5.3 µM | – | – | – | – | – | –
O=P(O)(O)C(CNc1ccc(Br)cn1)P(=O)(O)O [Compound 11, 2-(5-bromopyridin-2-ylamino)ethylidene-1,1-bisphosphonic Acid, reference compound] | – | – | – | – | 290 µM | > 100 µM | 200 µM | – | –
CC(C)(C)C(=O)OCOP(=O)(OCOC(=O)C(C)(C)C)C(CNc1ccncn1)P(=O)(OCOC(=O)C(C)(C)C)OCOC(=O)C(C)(C)C [Compound 39, tetrakispivaloyloxymethyl 2-(pyrimidin-4-ylamino)ethylidene-1,1-bisphosphonate] | 0.059 µM | 0.062 µM | 0.65 µM | high activity | – | – | – | particularly high activity | particularly high activity
CC(C)(C)C(=O)OCOP(=O)(OCOC(=O)C(C)(C)C)C(CNc1ncccc1O)P(=O)(OCOC(=O)C(C)(C)C)OCOC(=O)C(C)(C)C [Compound 27, tetrakispivaloyloxymethyl 2-(3-hydroxypyridin-2-ylamino)ethylidene-1,1-bisphosphonate] | 13 µM | 4.6 µM | 8.9 µM | – | – | – | – | – | –
Cc1csc(NCC(P(=O)(OCOC(=O)C(C)(C)C)OCOC(=O)C(C)(C)C)P(=O)(OCOC(=O)C(C)(C)C)OCOC(=O)C(C)(C)C)n1 [Compound 33, tetrakispivaloyloxymethyl 2-(4-methylthiazol-2-ylamino)ethylidene-1,1-bisphosphonate] | 4.2 µM | 3.6 µM | 5 µM | – | – | – | – | – | –
CC(=O)OCOP(=O)(OCOC(C)=O)C(CNc1ccccn1)P(=O)(OCOC(C)=O)OCOC(C)=O [Compound 42, tetrakisacetyloxymethyl 2-(pyridin-2-ylamino) ethylidene-1,1-bisphosphonate] | – | – | – | – | 16 µM | 7.1 µM | 17 µM | – | –
CCCCCCCCc1cccc(NCC(P(=O)(OCOC(=O)C(C)(C)C)OCOC(=O)C(C)(C)C)P(=O)(OCOC(=O)C(C)(C)C)OCOC(=O)C(C)(C)C)n1 [Compound 24, tetrakispivaloyloxymethyl 2-(6-octanylpyridin-2-ylamino)ethylidene-1,1-bisphosphonate] | 6.3 µM | > 10 µM | 3 µM | – | – | – | – | – | –
CC(C)(C)C(=O)OCOP(=O)(OCOC(=O)C(C)(C)C)C(CNc1ccc2ccccc2n1)P(=O)(OCOC(=O)C(C)(C)C)OCOC(=O)C(C)(C)C [Compound 30, tetrakispivaloyloxymethyl 2-(quinolin-2-ylamino)ethylidene-1,1-bisphosphonate] | 10 µM | > 10 µM | 6.6 µM | – | – | – | – | – | –
CC(C)(C)C(=O)OCOP(=O)(OCOC(=O)C(C)(C)C)C(CNc1ncccc1Br)P(=O)(OCOC(=O)C(C)(C)C)OCOC(=O)C(C)(C)C [Compound 2, tetrakispivaloyloxymethyl 2-(3-bromopyridin-2-ylamino)ethylidene-1,1-bisphosphonate] | 2.3 µM | 4.5 µM | 0.68 µM | – | – | – | – | high activity | high activity
CC(C)(C)C(=O)OCOP(=O)(OCOC(=O)C(C)(C)C)C(CNc1ncccn1)P(=O)(OCOC(=O)C(C)(C)C)OCOC(=O)C(C)(C)C [Compound 6, tetrakispivaloyloxymethyl 2-(pyrimidin-2-ylamino)ethylidene-1,1-bisphosphonate] | 0.09 µM | 0.08 µM | 2.4 µM | high activity | – | – | – | high activity | high activity
